One may read the EC50 as the concentration needed to bring the measured effect to its halfway point.

Square brackets hold non-standard residues; d marks the D form. Peptide text beside a SMILES is read from it. Orn = NCCC[C@H](N)C(=O)O; AEEA = NCCOCCOCC(=O)O

One assay addresses T1, human CCK-B R (Homo sapiens, UniProt P32239).
T1 construct: expressed in transfected cells
T1 sequence (P32239 1-447): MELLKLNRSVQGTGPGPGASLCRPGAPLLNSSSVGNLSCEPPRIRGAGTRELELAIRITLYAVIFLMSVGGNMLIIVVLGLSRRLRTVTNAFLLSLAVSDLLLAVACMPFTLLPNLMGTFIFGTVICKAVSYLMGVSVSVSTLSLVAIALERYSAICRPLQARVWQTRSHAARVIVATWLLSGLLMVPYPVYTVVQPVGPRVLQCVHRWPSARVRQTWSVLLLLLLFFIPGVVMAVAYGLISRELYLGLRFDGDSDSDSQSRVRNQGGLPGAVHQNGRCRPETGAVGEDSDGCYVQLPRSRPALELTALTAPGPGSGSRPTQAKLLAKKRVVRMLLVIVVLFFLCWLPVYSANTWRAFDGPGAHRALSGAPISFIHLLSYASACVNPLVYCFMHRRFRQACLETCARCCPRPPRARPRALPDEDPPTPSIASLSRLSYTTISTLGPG
Put plainly: Human CCK-B receptor efficacy assay (AlphaScreen SureFire p-ERK). Format: cell-based. The note with it: Table 2; read-out: hCCK-B R EC50.

A further assay concerns the target T2, human GLP-1 R (Homo sapiens, UniProt P43220).
T2 construct: expressed in transfected cells
Put plainly: Human GLP-1 receptor efficacy assay (cAMP induction, FlashPlate). The format is cell-based. The note with it: Table 2; read-out: hGLP-1 R EC50. The protocol:
On the day of analysis, growth medium was removed and the cells were washed once with 200 μl Tyrode buffer [Tyrode's Salts (9.6 g/l), 10 mM HEPES, pH 7.4]. […] The reaction was stopped by addition of 25 μl 0.5 M HCl and incubated on ice for 60 min.

T2 sequence (P43220 24-463): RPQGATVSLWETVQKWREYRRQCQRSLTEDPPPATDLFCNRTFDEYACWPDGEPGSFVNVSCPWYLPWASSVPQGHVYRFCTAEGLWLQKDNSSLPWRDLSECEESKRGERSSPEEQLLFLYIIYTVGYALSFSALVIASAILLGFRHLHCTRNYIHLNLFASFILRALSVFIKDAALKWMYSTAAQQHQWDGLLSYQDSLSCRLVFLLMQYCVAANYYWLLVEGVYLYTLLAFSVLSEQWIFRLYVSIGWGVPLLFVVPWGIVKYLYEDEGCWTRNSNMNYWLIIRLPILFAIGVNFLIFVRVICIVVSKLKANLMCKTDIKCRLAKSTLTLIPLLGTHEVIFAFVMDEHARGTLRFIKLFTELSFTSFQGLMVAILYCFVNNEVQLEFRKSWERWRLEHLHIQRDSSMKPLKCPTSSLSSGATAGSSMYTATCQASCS

For the compound `CC[C@H](C)[C@H](NC(=O)[C@H](Cc1ccccc1)NC(=O)[C@H](CC(C)C)NC(=O)[C@H](CCCNC(=N)N)NC(=O)[C@@H](NC(=O)[C@H](C)NC(=O)[C@H](CCC(=O)O)NC(=O)[C@H](CCC(=O)O)NC(=O)[C@H](CCC(=O)O)NC(=O)[C@H](CC(C)C)NC(=O)[C@H](Cc1ccc(O)cc1)NC(=O)[C@H](CCCCN)NC(=O)[C@H](CO)NC(=O)[C@H](CC(C)C)NC(=O)[C@H](CCC(=O)O)NC(=O)[C@H](CO)NC(=O)[C@@H](NC(=O)[C@H](Cc1ccccc1)NC(=O)[C@@H](NC(=O)CNC(=O)[C@H](CCC(=O)O)NC(=O)CNC(=O)[C@@H](N)Cc1c[nH]cn1)[C@@H](C)O)[C@@H](C)O)C(C)C)C(=O)N[C@@H](CCC(=O)O)C(=O)N[C@@H](Cc1ccccc1)C(=O)N[C@@H](CC(C)C)C(=O)N[C@@H](CCCCN)C(=O)NCCOCCOCC(=O)NCCOCCOCC(=O)N[C@@H](Cc1ccc(O)cc1)C(=O)NCC(=O)N[C@@H](Cc1c[nH]c2ccccc12)C(=O)N[C@@H](CC(C)C)C(=O)N[C@@H](CC(=O)O)C(=O)N[C@@H](Cc1ccccc1)C(N)=O` [Compound 88, [Glu9,Leu14,Phe25,Tyr13]Exendin-4(1-27)-Peg3-Peg3-[Leu4]Gastrin6] (H-HGEGTFTSELSKYLEEEAVRLFIEFLK[AEEA][AEEA]YGWLDF-NH2), the half-maximal effective concentration (EC50) amounted to 20 nM on human CCK-B R and 0.046 nM on human GLP-1 R.
Taken in the same sequence, the figures for `CC[C@H](C)[C@H](NC(=O)[C@H](Cc1ccccc1)NC(=O)[C@H](CC(C)C)NC(=O)[C@H](CCCNC(=N)N)NC(=O)[C@@H](NC(=O)[C@H](C)NC(=O)[C@H](CCC(=O)O)NC(=O)[C@H](CCC(=O)O)NC(=O)[C@H](CCC(=O)O)NC(=O)[C@H](CC(C)C)NC(=O)[C@H](Cc1ccc(O)cc1)NC(=O)[C@H](CCCCN)NC(=O)[C@H](CO)NC(=O)[C@H](CC(C)C)NC(=O)[C@H](CCC(=O)O)NC(=O)[C@H](CO)NC(=O)[C@@H](NC(=O)[C@H](Cc1ccccc1)NC(=O)[C@@H](NC(=O)CNC(=O)[C@H](CCC(=O)O)NC(=O)CNC(=O)[C@@H](N)Cc1c[nH]cn1)[C@@H](C)O)[C@@H](C)O)C(C)C)C(=O)N[C@@H](CCC(=O)O)C(=O)N[C@@H](Cc1ccccc1)C(=O)N[C@@H](CC(C)C)C(=O)N[C@@H](CCCCN)C(=O)NCCOCCOCC(=O)N[C@@H](CCCN)C(=O)N[C@@H](Cc1ccc(O)cc1)C(=O)NCC(=O)N[C@@H](Cc1c[nH]c2ccccc12)C(=O)N[C@@H](CC(C)C)C(=O)N[C@@H](CC(=O)O)C(=O)N[C@@H](Cc1ccccc1)C(N)=O` [Compound 104, [Glu9,Leu14,Phe25,Tyr13]Exendin-4(1-27)-Peg3-Orn-[Leu4]Gastrin6] (H-HGEGTFTSELSKYLEEEAVRLFIEFLK[AEEA][Orn]YGWLDF-NH2) were 8.8 nM and 0.087 nM.
Taken in the same sequence, the figures for `CC[C@H](C)[C@H](NC(=O)[C@H](Cc1ccccc1)NC(=O)[C@H](CC(C)C)NC(=O)[C@H](CCCNC(=N)N)NC(=O)[C@@H](NC(=O)[C@H](C)NC(=O)[C@H](CCC(=O)O)NC(=O)[C@H](CCCCN)NC(=O)[C@H](CCC(=O)O)NC(=O)[C@H](CCSC)NC(=O)[C@H](CCC(N)=O)NC(=O)[C@H](CCCCN)NC(=O)[C@H](CO)NC(=O)[C@H](CC(C)C)NC(=O)[C@H](CC(=O)O)NC(=O)[C@H](CO)NC(=O)[C@@H](NC(=O)[C@H](Cc1ccccc1)NC(=O)[C@@H](NC(=O)CNC(=O)[C@H](CCC(=O)O)NC(=O)CNC(=O)[C@@H](N)Cc1c[nH]cn1)[C@@H](C)O)[C@@H](C)O)C(C)C)C(=O)N[C@@H](CCC(=O)O)C(=O)N[C@@H](Cc1c[nH]c2ccccc12)C(=O)N[C@@H](CC(C)C)C(=O)N[C@@H](CCCCN)C(=O)N[C@@H](CC(N)=O)C(=O)NCCOCCOCC(=O)NCCOCCOCC(=O)N[C@@H](Cc1ccc(O)cc1)C(=O)NCC(=O)N[C@@H](Cc1c[nH]c2ccccc12)C(=O)N[C@@H](CC(C)C)C(=O)N[C@@H](CC(=O)O)C(=O)N[C@@H](Cc1ccccc1)C(N)=O` [Compound 81, [Lys16]Exendin-4(1-28)-Peg3-Peg3-[Leu4]Gastrin6] (H-HGEGTFTSDLSKQMEKEAVRLFIEWLKN[AEEA][AEEA]YGWLDF-NH2) were 15 nM and 0.032 nM.
Taken in the same sequence, the figures for `CC[C@H](C)[C@H](NC(=O)[C@H](Cc1ccccc1)NC(=O)[C@H](CC(C)C)NC(=O)[C@H](CCCNC(=N)N)NC(=O)[C@@H](NC(=O)[C@H](C)NC(=O)[C@H](CCC(=O)O)NC(=O)[C@H](CCC(=O)O)NC(=O)[C@H](CCC(=O)O)NC(=O)[C@H](CC(C)C)NC(=O)[C@H](Cc1ccc(O)cc1)NC(=O)[C@H](CCCNC(=N)N)NC(=O)[C@H](CO)NC(=O)[C@H](CC(C)C)NC(=O)[C@H](CC(=O)O)NC(=O)[C@H](CO)NC(=O)[C@@H](NC(=O)[C@H](Cc1ccccc1)NC(=O)[C@@H](NC(=O)CNC(=O)[C@H](CCC(=O)O)NC(=O)CNC(=O)[C@@H](N)Cc1c[nH]cn1)[C@@H](C)O)[C@@H](C)O)C(C)C)C(=O)N[C@@H](CCC(=O)O)C(=O)N[C@@H](Cc1ccccc1)C(=O)N[C@@H](CC(C)C)C(=O)N[C@@H](CCCCN)C(=O)NCCOCCOCC(=O)N[C@@H](Cc1ccc(O)cc1)C(=O)NCC(=O)N[C@@H](Cc1c[nH]c2ccccc12)C(=O)N[C@@H](CC(C)C)C(=O)N[C@@H](CC(=O)O)C(=O)N[C@@H](Cc1ccccc1)C(N)=O` [Compound 95, [Arg12,Leu14,Phe25,Tyr13]Exendin-4(1-27)-Peg3-[Leu4]Gastrin6] (H-HGEGTFTSDLSRYLEEEAVRLFIEFLK[AEEA]YGWLDF-NH2) were 14 nM and 0.079 nM.
With `CC[C@H](C)[C@H](NC(=O)[C@H](Cc1ccccc1)NC(=O)[C@H](CC(C)C)NC(=O)[C@H](CCCNC(=N)N)NC(=O)[C@@H](NC(=O)[C@H](C)NC(=O)[C@H](CCC(=O)O)NC(=O)[C@H](CCCCN)NC(=O)[C@H](CCC(=O)O)NC(=O)[C@H](CC(C)C)NC(=O)[C@H](Cc1ccc(O)cc1)NC(=O)[C@H](CCCNC(=N)N)NC(=O)[C@H](CO)NC(=O)[C@H](CC(C)C)NC(=O)[C@H](CC(=O)O)NC(=O)[C@H](CO)NC(=O)[C@@H](NC(=O)[C@H](Cc1ccccc1)NC(=O)[C@@H](NC(=O)CNC(=O)[C@H](CCC(=O)O)NC(=O)CNC(=O)[C@@H](N)Cc1c[nH]cn1)[C@@H](C)O)[C@@H](C)O)C(C)C)C(=O)N[C@@H](CCC(=O)O)C(=O)N[C@@H](Cc1ccccc1)C(=O)N[C@@H](CC(C)C)C(=O)N[C@@H](CCCNC(=N)N)C(=O)NCCOCCOCC(=O)N[C@@H](Cc1ccc(O)cc1)C(=O)NCC(=O)N[C@@H](Cc1c[nH]c2ccccc12)C(=O)N[C@@H](CC(C)C)C(=O)N[C@@H](CC(=O)O)C(=O)N[C@@H](Cc1ccccc1)C(N)=O` [Compound 92, [Arg12,27,Leu14,Lys16,Phe25,Tyr13]Exendin-4(1-27)-Peg3-[Leu4]Gastrin6] (H-HGEGTFTSDLSRYLEKEAVRLFIEFLR[AEEA]YGWLDF-NH2), the concentration for a half-maximal effect (EC50) on human CCK-B R is 26 nM; on human GLP-1 R, 0.17 nM.
As to `CC[C@H](C)[C@H](NC(=O)[C@H](Cc1ccccc1)NC(=O)[C@H](CC(C)C)NC(=O)[C@H](CCCNC(=N)N)NC(=O)[C@@H](NC(=O)[C@H](C)NC(=O)[C@H](CCC(=O)O)NC(=O)[C@H](CCC(=O)O)NC(=O)[C@H](CCC(=O)O)NC(=O)[C@H](CCSC)NC(=O)[C@H](CCC(N)=O)NC(=O)[C@H](CCCCN)NC(=O)[C@H](CO)NC(=O)[C@H](CC(C)C)NC(=O)[C@H](CC(=O)O)NC(=O)[C@H](CO)NC(=O)[C@@H](NC(=O)[C@H](Cc1ccccc1)NC(=O)[C@@H](NC(=O)CNC(=O)[C@H](CCC(=O)O)NC(=O)CNC(=O)[C@@H](N)Cc1c[nH]cn1)[C@@H](C)O)[C@@H](C)O)C(C)C)C(=O)N[C@@H](CCC(=O)O)C(=O)N[C@@H](Cc1ccccc1)C(=O)N[C@@H](CC(C)C)C(=O)N[C@@H](CCCCN)C(=O)N[C@@H](CC(N)=O)C(=O)NCCOCCOCC(=O)NCCOCCOCC(=O)N[C@@H](Cc1ccc(O)cc1)C(=O)NCC(=O)N[C@@H](Cc1c[nH]c2ccccc12)C(=O)N[C@@H](CC(C)C)C(=O)N[C@@H](CC(=O)O)C(=O)N[C@@H](Cc1ccccc1)C(N)=O` [Compound 63, [Phe25]Exendin-4(1-28)-Peg3-Peg3-[Leu4]Gastrin6], the EC50 at human CCK-B R was determined as 8.5 nM; at human GLP-1 R, 0.041 nM.
The matching figures for `CC[C@H](C)[C@H](NC(=O)[C@H](Cc1ccccc1)NC(=O)[C@H](CC(C)C)NC(=O)[C@H](CCCNC(=N)N)NC(=O)[C@@H](NC(=O)[C@H](C)NC(=O)[C@H](CCC(=O)O)NC(=O)[C@H](CCC(=O)O)NC(=O)[C@H](CCC(=O)O)NC(=O)[C@H](CC(C)C)NC(=O)[C@H](Cc1ccc(O)cc1)NC(=O)[C@H](CCCCN)NC(=O)[C@H](CO)NC(=O)[C@H](CC(C)C)NC(=O)[C@H](CCC(=O)O)NC(=O)[C@H](CO)NC(=O)[C@@H](NC(=O)[C@H](Cc1ccccc1)NC(=O)[C@@H](NC(=O)CNC(=O)[C@H](CCC(=O)O)NC(=O)CNC(=O)[C@@H](N)Cc1c[nH]cn1)[C@@H](C)O)[C@@H](C)O)C(C)C)C(=O)N[C@@H](CCC(=O)O)C(=O)N[C@@H](Cc1ccccc1)C(=O)N[C@@H](CC(C)C)C(=O)N[C@@H](CCCCN)C(=O)N[C@@H](CCCN)C(=O)N[C@@H](CCCN)C(=O)N[C@@H](Cc1ccc(O)cc1)C(=O)NCC(=O)N[C@@H](Cc1c[nH]c2ccccc12)C(=O)N[C@@H](CC(C)C)C(=O)N[C@@H](CC(=O)O)C(=O)N[C@@H](Cc1ccccc1)C(N)=O` [Compound 105, [Glu9,Leu14,Phe25,Tyr13]Exendin-4(1-27)-Orn-Orn-[Leu4]Gastrin6] (H-HGEGTFTSELSKYLEEEAVRLFIEFLK[Orn][Orn]YGWLDF-NH2): 16 nM and 0.11 nM.

The values above are taken from patent US10406207B2, “Peptide conjugates of GLP-1 receptor agonists and gastrin and their use” (priority 2010, dated 2019).
